Where two headings read alike, the source gives them in different places.
Assay: Stability studies, storage at 40° C.
Type: physicochemical

Compound	degradation after 12 months storage	degradation after 12 months storage (hydrate)
C=C1/C(=C\C=C2/CCC[C@]3(C)[C@@H]([C@H](C)/C=C/[C@@H](O)C4CC4)CC[C@@H]23)C[C@@H](O)C[C@@H]1O [anhydrous form of calcipotriol, (1α,3β,5Z,7E,22E,24S)-24-Cyclopropyl-9,10-secochola-5,7,10(19), 22-tetraene-1,3,24-triol]	more than 30%	
C=C1/C(=C\C=C2/CCC[C@]3(C)[C@@H]([C@H](C)/C=C/[C@@H](O)C4CC4)CC[C@@H]23)C[C@@H](O)C[C@@H]1O [calcipotriol hydrate, calcipotriol, hydrate]		no degradation
